{"source": "PubChem BioAssay AID602267", "about": "(Broad Institute, 2012)", "note": "Calls of active or inactive are those of the source.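 How the source made its calls: active means signal falls with dose and the fitted half-maximal concentration is at or below twice the top valid tested dose; inconclusive means flat curve with 30 to 70% inhibition, or poor fit; inactive means wrong direction, flat within 30%, or potency beyond limit.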"}
{"target": "Golgi-associated PDZ and coiled-coil motif-containing protein (Homo sapiens) (UniProt Q9HD26)", "assay": "blockers of CAL PDZ ligand groove binding – biochemical, fluorescence polarization, untagged CAL PDZ, cherry-pick, dose response (AID 602267)", "settings": "purified CAL PDZ, TMR-peptide fluorescence polarization, 1 h; at 16 µM (top of the series)"}
{"compound": "C=CCOc1c(Cl)cc(CNn2cn[nH]c2=S)cc1OC", "activity change, negative = inhibition": "inactive"}
{"target": "Golgi-associated PDZ and coiled-coil motif-containing protein (Homo sapiens) (UniProt Q9HD26)", "assay": "blockers of CAL PDZ ligand groove binding – biochemical, fluorescence polarization, untagged CAL PDZ, cherry-pick, dose response (AID 602267)", "settings": "purified CAL PDZ, TMR-peptide fluorescence polarization, 1 h; at 50 µM (top of the series)"}
{"compound": "O=C(CCc1nc(-c2ccc(Cl)cc2)no1)NC1CCCCC1", "activity change, negative = inhibition": "inactive"}
{"compound": "C/C(=N/N1CCN(c2ccccn2)CC1)c1ccc([N+](=O)[O-])cc1", "activity change, negative = inhibition": "inactive"}
{"compound": "CCc1nc2ccccc2c(C(=O)Oc2cccc3cccnc23)c1C", "activity change, negative = inhibition": "inactive"}
{"compound": "Cc1cc(C(=O)CN2CCCC2)c(C)n1-c1ccc(Cl)cc1", "activity change, negative = inhibition": "inactive"}
{"compound": "CC12CNCC(C)(CN(C3(O)C(=O)Nc4ccc(Br)cc43)C1)C2=O", "note": "(configuration not stated)", "activity change, negative = inhibition": "inactive"}
{"compound": "CC(C)n1cc(C(=O)N2CCCC(N3CCN(c4ccc(F)cc4)CC3)C2)cn1", "note": "(configuration not stated)", "activity change, negative = inhibition": "inactive"}
{"compound": "Cc1ccc2cc(C#N)c(N3CCCN(S(=O)(=O)c4ccccc4)CC3)nc2c1", "activity change, negative = inhibition": "inactive"}
{"compound": "O=C(CN1CC[n+]2c(-c3cccs3)csc21)c1ccc(-c2ccccc2)cc1", "activity change, negative = inhibition": "inactive"}
{"compound": "O=C(O)c1ccc(Oc2cc(Oc3ccc(C(=O)O)cc3)cc([N+](=O)[O-])c2)cc1", "activity change, negative = inhibition": "inactive"}
{"compound": "CCCCN(CCCC)CCNC(=O)c1ccc2nc(-c3ccccc3NC(C)=O)c(=O)[nH]c2c1", "activity change, negative = inhibition": "inactive"}
{"compound": "Cc1cccc(-n2nc(C)c3c2NC2=C(C(=O)CCC2)C3c2ccccn2)c1", "note": "(configuration not stated)", "activity change, negative = inhibition": "inactive"}
{"compound": "Cc1cc(C)nc(/N=C(\\N)N2CCc3ccccc32)n1", "activity change, negative = inhibition": "inactive"}
{"compound": "CC(C)=Cc1oc2ccc([N+](=O)[O-])cc2c1N1CCOCC1", "activity change, negative = inhibition": "inactive"}
{"compound": "Cc1sc2ncn(CC(=O)NCCCC(=O)N3CCN(Cc4ccc5c(c4)OCO5)CC3)c(=O)c2c1C", "activity change, negative = inhibition": "inactive"}
{"compound": "COc1ccccc1Oc1coc2cc(OC(=O)N3CCOCC3)ccc2c1=O", "activity change, negative = inhibition": "inactive"}
{"compound": "CCN1C(=O)CS/C1=N\\S(=O)(=O)c1ccc(Cl)cc1", "activity change, negative = inhibition": "inactive"}
{"compound": "Cc1c(C(=O)OCC(=O)NC(=O)NC2CCCCC2)cccc1[N+](=O)[O-]", "activity change, negative = inhibition": "inactive"}
{"compound": "COc1ccc(CC(=O)NCC2CCCN(Cc3cccc(SC)c3)C2)cc1", "note": "(configuration not stated)", "activity change, negative = inhibition": "inactive"}
{"compound": "FC(F)(F)c1cc(-c2cccs2)nc2ncnn12", "activity change, negative = inhibition": "inactive"}
{"compound": "COc1ccc(C(C)=O)cc1COC(=O)CNC(=O)c1ccccc1F", "activity change, negative = inhibition": "inactive"}
{"compound": "COc1ccc(Br)c(C(=O)NC2CCCC2)c1", "activity change, negative = inhibition": "inactive"}
{"compound": "O=C(CCCn1c(=S)[nH]c2cc3c(cc2c1=O)OCO3)N1CCN(c2ccc(Cl)cc2)CC1", "activity change, negative = inhibition": "inactive"}
{"compound": "CCN(CCCn1c(=S)[nH]c2ccc(N3CCOCC3)cc2c1=O)c1ccccc1", "activity change, negative = inhibition": "inactive"}
{"compound": "O=C(NCc1ccccc1)C1CCCN(c2nc3ccsc3c(=O)s2)C1", "note": "(configuration not stated)", "activity change, negative = inhibition": "inactive"}
{"compound": "CSc1cccc(NC(=O)N2CCCC(CNS(=O)(=O)Cc3ccccc3)C2)c1", "note": "(configuration not stated)", "activity change, negative = inhibition": "inactive"}
{"compound": "COc1ccc(C(=O)N2CCCc3ccccc32)cc1Br", "activity change, negative = inhibition": "inactive"}
{"compound": "O=C(NCc1ccccn1)Nc1ccc(F)c(Cl)c1", "activity change, negative = inhibition": "inactive"}
{"compound": "COc1cc(Cl)c(CN2CCCC(CO)(Cc3cccc(Cl)c3)C2)cc1OC", "note": "(configuration not stated)", "activity change, negative = inhibition": "inactive"}
{"compound": "COc1cccc(-c2cccc(NC(=O)C3CCN(Cc4ccc(CO)o4)CC3)c2)c1", "activity change, negative = inhibition": "inactive"}
{"compound": "COc1ccccc1NC(=O)c1c([N+](=O)[O-])cnn1C", "activity change, negative = inhibition": "inactive"}
{"compound": "N#Cc1ccc(CC(=O)c2ccccc2)[nH]c1=O", "activity change, negative = inhibition": "inactive"}
{"compound": "COc1ccc(OC)c(S(=O)(=O)NCCCn2ccnc2)c1", "activity change, negative = inhibition": "inactive"}
{"compound": "Cc1nn(C)c(C)c1S(=O)(=O)N1CCC(CO)(CC2CCCCO2)CC1", "note": "(configuration not stated)", "activity change, negative = inhibition": "inactive"}
{"compound": "CC1CCC(NC(=O)c2ccc3c(c2)S(=O)(=O)c2ccccc2C3=O)CC1", "note": "(configuration not stated)", "activity change, negative = inhibition": "inactive"}
{"compound": "O=C(NCc1ccccn1)c1ccc(NS(=O)(=O)c2ccccc2)cc1", "activity change, negative = inhibition": "inactive"}
{"compound": "COC(=O)[C@H]1[C@H]2C[C@@H]3c4[nH]c5cc(OC)ccc5c4CCN3C[C@H]2C[C@@H](OC(=O)/C=C/c2cc(OC)c(OC)c(OC)c2)[C@@H]1OC", "activity change, negative = inhibition": "inactive"}
{"compound": "c1ccc2[nH]c(CCNC3CCCCC3)nc2c1", "activity change, negative = inhibition": "inactive"}
{"compound": "O=C(/C=C/c1cccs1)Nc1scc(-c2ccccc2)c1C(=O)O", "activity change, negative = inhibition": "inactive"}
{"compound": "CN(Cc1nccn1C)C(=O)c1cc(COc2ccc3ncccc3c2)on1", "activity change, negative = inhibition": "inactive"}
{"compound": "CN1CC(=O)N(CC(=O)Nc2ccc(Br)cc2F)C1=O", "activity change, negative = inhibition": "inactive"}
{"compound": "CS(=O)(=O)N(CC(=O)N1CCOCC1)c1cccc(F)c1", "activity change, negative = inhibition": "inactive"}
{"compound": "O=C(c1ccccc1)c1c2c(cc3sc4ccccc4[n+]13)-c1cccc3cccc-2c13", "activity change, negative = inhibition": "inactive"}
{"compound": "CC(C)CNC(=O)CN1C(=O)NC(Cc2c[nH]c3ccccc23)C1=O", "note": "(configuration not stated)", "activity change, negative = inhibition": "inactive"}
{"compound": "COC(=O)c1ccccc1NC(=O)n1cc(C)cn1", "activity change, negative = inhibition": "inactive"}
{"compound": "CSc1ccc(CNCCCSc2ncccn2)cc1", "activity change, negative = inhibition": "inactive"}
{"compound": "NS(=O)(=O)c1ccc(N2N=C(c3ccccc3)CC2c2ccccc2)cc1", "note": "(configuration not stated)", "activity change, negative = inhibition": "inactive"}
{"compound": "CNC(=O)c1nnn(Cc2ccccc2)c1NC(C)=O", "activity change, negative = inhibition": "inactive"}
{"compound": "CN=c1scc(C)n1/N=C/c1cc(Br)c(O)c(Br)c1", "activity change, negative = inhibition": "inactive"}
{"compound": "COc1ccc(CC(=O)N2CCC(CCC(=O)Nc3ccccc3)CC2)cc1", "activity change, negative = inhibition": "inactive"}
{"compound": "COCCN(Cc1nc(C(c2ccccc2)c2ccccc2)no1)C(C)C", "activity change, negative = inhibition": "inactive"}
{"compound": "S=C(NCCc1ccccc1)N1CCn2cccc2C1c1cccnc1", "note": "(configuration not stated)", "activity change, negative = inhibition": "inactive"}
{"compound": "Cc1cccc(N(Cc2cc(=O)[nH]c3ccccc23)C(=O)C(C)C)c1", "activity change, negative = inhibition": "inactive"}
{"compound": "COc1ccc(CN2CCCC(N3CCN(c4cccc(Cl)c4)CC3)C2)cc1OC", "note": "(configuration not stated)", "activity change, negative = inhibition": "inactive"}
{"compound": "CN(C)CCNC(=O)COc1cccc2c1OC(C)(C)C2", "activity change, negative = inhibition": "inactive"}
{"compound": "COCc1cc(C)nc(SCc2ccccc2)c1C#N", "activity change, negative = inhibition": "inactive"}
{"compound": "Cc1ccc2nc(CSc3nnc(-c4ccncc4)n3C)cc(=O)n2c1", "activity change, negative = inhibition": "inactive"}
{"compound": "O=C(c1cc2cc([N+](=O)[O-])ccc2oc1=O)N1CCN(C2CCCCC2)CC1", "activity change, negative = inhibition": "inactive"}
{"compound": "COC(=O)CN1C(=O)N/C(=C/c2cc(Cl)c(OC)c(OC)c2)C1=O", "activity change, negative = inhibition": "inactive"}
{"compound": "CC12CCC(C(=O)N(CCCN3CCN(Cc4ccccc4)CC3)C1=O)C2(C)C", "note": "(configuration not stated)", "activity change, negative = inhibition": "inactive"}
{"compound": "COc1cc(C(=O)NC(C)CCc2ccccc2)cc(OC)c1OC", "note": "(configuration not stated)", "activity change, negative = inhibition": "inactive"}
{"compound": "Nc1ncnc2c1C(c1ccccc1)c1c(ccc3ccccc13)O2", "note": "(configuration not stated)", "activity change, negative = inhibition": "inactive"}
{"compound": "CC(=O)NC1C(=O)N(CCN2CCOCC2)c2ccc(Cl)cc21", "note": "(configuration not stated)", "activity change, negative = inhibition": "inactive"}
{"compound": "Cc1nc(N)c(CC(Br)CBr)c(Cl)n1", "note": "(configuration not stated)", "activity change, negative = inhibition": "inactive"}
{"compound": "Cc1cccc(NS(=O)(=O)Cc2ccccc2)c1C", "activity change, negative = inhibition": "inactive"}
{"compound": "CCC(=O)c1cn(CC(=O)Nc2cccc(C)c2C)c2ccccc12", "activity change, negative = inhibition": "inactive"}
{"compound": "Cn1c(=O)c2c(ncn2CC(=O)Nc2nc(-c3ccccc3Cl)cs2)n(C)c1=O", "activity change, negative = inhibition": "inactive"}
